In US11713338B2, “Cyclic peptides multimers targeting α-4-β-7 integrin” (priority 2016, dated 2023):

What was measured:
[1] = biological target: T1, recombinant integrin α4β7 (Homo sapiens, UniProt P13612+P26010, DEL724-798); test: Integrin α4β7—MAdCAM-1 ELISA competition assay; type: binding; settings: read-out: ELISA α4β7 Assay IC50
T1 construct: purchased R&D Systems 5397-A3-050
T1 sequence (P13612 34-970 limits assumed): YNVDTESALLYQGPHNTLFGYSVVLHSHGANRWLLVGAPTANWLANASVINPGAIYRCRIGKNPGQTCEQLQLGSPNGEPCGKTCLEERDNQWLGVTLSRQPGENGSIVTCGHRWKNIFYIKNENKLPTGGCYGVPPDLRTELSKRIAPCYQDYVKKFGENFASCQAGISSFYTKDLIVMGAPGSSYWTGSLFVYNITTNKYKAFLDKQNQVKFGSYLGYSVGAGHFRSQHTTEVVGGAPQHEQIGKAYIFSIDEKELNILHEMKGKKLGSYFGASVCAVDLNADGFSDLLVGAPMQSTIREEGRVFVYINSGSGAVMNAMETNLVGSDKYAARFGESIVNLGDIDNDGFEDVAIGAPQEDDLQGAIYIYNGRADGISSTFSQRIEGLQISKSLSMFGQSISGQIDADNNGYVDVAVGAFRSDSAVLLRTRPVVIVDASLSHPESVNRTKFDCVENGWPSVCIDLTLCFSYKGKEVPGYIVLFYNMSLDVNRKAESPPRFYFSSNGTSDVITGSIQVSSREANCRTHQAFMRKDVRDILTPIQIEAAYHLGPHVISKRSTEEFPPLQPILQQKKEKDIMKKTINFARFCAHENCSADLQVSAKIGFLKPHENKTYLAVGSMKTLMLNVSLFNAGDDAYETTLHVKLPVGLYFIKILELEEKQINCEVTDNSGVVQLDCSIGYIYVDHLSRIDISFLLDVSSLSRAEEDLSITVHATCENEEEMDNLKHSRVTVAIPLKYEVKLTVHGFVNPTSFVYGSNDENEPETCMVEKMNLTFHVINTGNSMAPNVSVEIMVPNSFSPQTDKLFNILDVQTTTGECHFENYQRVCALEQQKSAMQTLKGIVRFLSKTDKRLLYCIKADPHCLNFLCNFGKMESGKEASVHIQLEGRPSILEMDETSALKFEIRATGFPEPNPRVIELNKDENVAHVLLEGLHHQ
T1 sequence (P26010 20-723 limits assumed): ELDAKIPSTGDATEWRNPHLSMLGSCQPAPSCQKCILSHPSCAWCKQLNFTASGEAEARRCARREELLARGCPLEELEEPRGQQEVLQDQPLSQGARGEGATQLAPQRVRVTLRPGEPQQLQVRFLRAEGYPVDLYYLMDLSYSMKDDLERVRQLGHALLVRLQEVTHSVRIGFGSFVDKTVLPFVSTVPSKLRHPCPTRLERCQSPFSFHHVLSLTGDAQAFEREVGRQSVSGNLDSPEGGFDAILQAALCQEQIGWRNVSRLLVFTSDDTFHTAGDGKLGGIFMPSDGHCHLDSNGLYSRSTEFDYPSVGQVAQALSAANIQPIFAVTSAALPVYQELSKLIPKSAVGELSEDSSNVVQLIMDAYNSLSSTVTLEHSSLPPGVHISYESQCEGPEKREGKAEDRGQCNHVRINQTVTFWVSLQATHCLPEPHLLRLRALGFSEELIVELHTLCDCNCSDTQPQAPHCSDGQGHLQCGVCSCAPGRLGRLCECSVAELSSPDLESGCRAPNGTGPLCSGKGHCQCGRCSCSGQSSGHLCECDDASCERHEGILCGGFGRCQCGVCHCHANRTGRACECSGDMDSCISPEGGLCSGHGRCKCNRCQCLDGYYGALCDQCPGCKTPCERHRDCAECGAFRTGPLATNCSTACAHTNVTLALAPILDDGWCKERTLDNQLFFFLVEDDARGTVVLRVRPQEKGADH

[2] = biological target: T2, recombinant integrin α4β1 (Homo sapiens, UniProt P05556+P13612); test: Integrin α4β1—VCAM-1 competition ELISA; type: binding; settings: for IC50: read-out: ELISA α4β1 Assay IC50; for ELISA Assay Ratio β1/β7: ratio of ELISA IC50s, α4β1 over α4β7
T2 construct: purchased R&D Systems 5397-A3-050
Procedure, shortened: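 Compound dilutions added to coated plate and shaken at room temperature for 2 h (300 rpm) to binding equilibrium. Wash buffer: 50 mM Tris, 100 mM NaCl, 1 mM MnCl2, 0.05% Tween. Bound Fc-tagged ligand detected with anti-human IgG Fc-HRP, 1 h at room temperature.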

T2 sequence (P05556 21-728 limits assumed, one chain of several): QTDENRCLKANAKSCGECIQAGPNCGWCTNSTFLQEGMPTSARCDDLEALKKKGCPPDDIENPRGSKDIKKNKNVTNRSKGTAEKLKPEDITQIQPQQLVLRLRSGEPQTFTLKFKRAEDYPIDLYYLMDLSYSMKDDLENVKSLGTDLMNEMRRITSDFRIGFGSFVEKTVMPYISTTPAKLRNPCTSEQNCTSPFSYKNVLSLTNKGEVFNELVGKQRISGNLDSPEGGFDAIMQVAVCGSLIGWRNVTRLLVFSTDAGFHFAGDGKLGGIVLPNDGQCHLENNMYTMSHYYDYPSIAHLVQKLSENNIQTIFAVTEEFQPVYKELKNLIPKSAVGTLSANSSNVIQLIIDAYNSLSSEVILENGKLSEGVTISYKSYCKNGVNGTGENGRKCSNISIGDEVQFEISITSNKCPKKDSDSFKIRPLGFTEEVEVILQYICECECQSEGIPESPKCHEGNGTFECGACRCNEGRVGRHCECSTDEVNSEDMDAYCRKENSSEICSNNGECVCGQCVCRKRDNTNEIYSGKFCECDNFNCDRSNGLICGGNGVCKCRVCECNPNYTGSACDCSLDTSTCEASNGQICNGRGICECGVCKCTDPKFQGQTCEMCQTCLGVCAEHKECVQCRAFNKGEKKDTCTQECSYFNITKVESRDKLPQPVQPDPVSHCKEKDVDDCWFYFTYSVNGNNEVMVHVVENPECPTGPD

| SMILES | IC50 [1] [nM] | IC50 [2] [nM] | ELISA Assay Ratio β1/β7 [2] |
| --- | --- | --- | --- |
| CC(C)C[C@@H]1NC(=O)c2ccc(-c3ccc(N4CCN(C(=O)[C@H](CCCCNC(=O)CCCCCC(=O)NCCCC[C@H](NC(=O)OCc5ccccc5)C(=O)N5CCN(c6ccc(-c7ccc8cc7CNC(=O)[C@@H]7CCCN7[C@H](C(=O)NC(C)(C)C)[C@H](C)NC(=O)[C@H]([C@@H](C)O)NC(=O)[C@H](CC(=O)O)NC(=O)[C@H](CC(C)C)NC8=O)cc6)CC5)NC(=O)OCc5ccccc5)CC4)cc3)c(c2)CNC(=O)[C@@H]2CCCN2[C@H](C(=O)NC(C)(C)C)[C@H](C)NC(=O)[C@H]([C@@H](C)O)NC(=O)[C@H](CC(=O)O)NC1=O [Compound 498] | 12 | 3 |  |
| CC(C)C[C@@H]1NC(=O)c2ccc(-c3ccc(N4CCN(Cc5cccc(CN6CCN(c7ccc(-c8ccc9cc8CNC(=O)[C@@H]8CCCN8[C@H](C(=O)NC(C)(C)C)[C@H](C)NC(=O)[C@H]([C@@H](C)O)NC(=O)[C@H](CC(=O)O)NC(=O)[C@H](CC(C)C)NC9=O)cc7)CC6)c5)CC4)cc3)c(c2)CNC(=O)[C@@H]2CCCN2[C@H](C(=O)NC(C)(C)C)[C@H](C)NC(=O)[C@H]([C@@H](C)O)NC(=O)[C@H](CC(=O)O)NC1=O [Compound 499] | 17 | 3.1 | 0.2 |
| CC(C)C[C@@H]1NC(=O)c2ccc(-c3ccc(N4CCN(Cc5ccc(CN6CCN(c7ccc(-c8ccc9cc8CNC(=O)[C@@H]8CCCN8[C@H](C(=O)NC(C)(C)C)[C@H](C)NC(=O)[C@H]([C@@H](C)O)NC(=O)[C@H](CC(=O)O)NC(=O)[C@H](CC(C)C)NC9=O)cc7)CC6)cc5)CC4)cc3)c(c2)CNC(=O)[C@@H]2CCCN2[C@H](C(=O)NC(C)(C)C)[C@H](C)NC(=O)[C@H]([C@@H](C)O)NC(=O)[C@H](CC(=O)O)NC1=O [Compound 500] | 12 | 9.9 | 0.8 |
| CC(C)C[C@@H]1NC(=O)c2ccc(-c3ccc(N4CCN(C(=O)CCOCCOCCNC(=O)CCCCCC(=O)NCCOCCOCCC(=O)N5CCN(c6ccc(-c7ccc8cc7CNC(=O)[C@@H]7CCCN7[C@H](C(=O)NC(C)(C)C)[C@H](C)NC(=O)[C@H]([C@@H](C)O)NC(=O)[C@H](CC(=O)O)NC(=O)[C@H](CC(C)C)NC8=O)cc6)CC5)CC4)cc3)c(c2)CNC(=O)[C@@H]2CCCN2[C@H](C(=O)NC(C)(C)C)[C@H](C)NC(=O)[C@H]([C@@H](C)O)NC(=O)[C@H](CC(=O)O)NC1=O [Compound 505] | 19 | 6.6 | 0.3 |
| CC(C)C[C@@H]1NC(=O)c2ccc(-c3ccc(N4CCN(C(=O)CCOCCOCCOCCOCCOCCOCCOCCOCCOCCOCCC(=O)N5CCN(c6ccc(-c7ccc8cc7CNC(=O)[C@@H]7CCCN7[C@H](C(=O)NC(C)(C)C)[C@H](C)NC(=O)[C@H]([C@@H](C)O)NC(=O)[C@H](CC(=O)O)NC(=O)[C@H](CC(C)C)NC8=O)cc6)CC5)CC4)cc3)c(c2)CNC(=O)[C@@H]2CCCN2[C@H](C(=O)NC(C)(C)C)[C@H](C)NC(=O)[C@H]([C@@H](C)O)NC(=O)[C@H](CC(=O)O)NC1=O [Compound 511] | 11 | 7.2 | 0.6 |
| CC(C)C[C@@H]1NC(=O)c2ccc(-c3ccc(N4CCN(C(=O)c5ccccc5-c5ccccc5C(=O)N5CCN(c6ccc(-c7ccc8cc7CNC(=O)[C@@H]7CCCN7[C@H](C(=O)NC(C)(C)C)[C@H](C)NC(=O)[C@H]([C@@H](C)O)NC(=O)[C@H](CC(=O)O)NC(=O)[C@H](CC(C)C)NC8=O)cc6)CC5)CC4)cc3)c(c2)CNC(=O)[C@@H]2CCCN2[C@H](C(=O)NC(C)(C)C)[C@H](C)NC(=O)[C@H]([C@@H](C)O)NC(=O)[C@H](CC(=O)O)NC1=O [Compound 517] | 7.5 | 2.1 |  |
| CC(C)C[C@@H]1NC(=O)c2ccc(-c3ccc(N4CCN(Cc5cc(CN6CCN(c7ccc(-c8ccc9cc8CNC(=O)[C@@H]8CCCN8[C@H](C(=O)NC(C)(C)C)[C@H](C)NC(=O)[C@H]([C@@H](C)O)NC(=O)[C@H](CC(=O)O)NC(=O)[C@H](CC(C)C)NC9=O)cc7)CC6)cc(CN6CCN(c7ccc(-c8ccc9cc8CNC(=O)[C@@H]8CCCN8[C@H](C(=O)NC(C)(C)C)[C@H](C)NC(=O)[C@H]([C@@H](C)O)NC(=O)[C@H](CC(=O)O)NC(=O)[C@H](CC(C)C)NC9=O)cc7)CC6)c5)CC4)cc3)c(c2)CNC(=O)[C@@H]2CCCN2[C@H](C(=O)NC(C)(C)C)[C@H](C)NC(=O)[C@H]([C@@H](C)O)NC(=O)[C@H](CC(=O)O)NC1=O [Compound 518] | 36 | 8.7 |  |
| CC(C)C[C@@H]1NC(=O)c2ccc(-c3ccc(N4CCN(C(=O)c5cc(C(=O)N6CCN(c7ccc(-c8ccc9cc8CNC(=O)[C@@H]8CCCN8[C@H](C(=O)NC(C)(C)C)[C@H](C)NC(=O)[C@H]([C@@H](C)O)NC(=O)[C@H](CC(=O)O)NC(=O)[C@H](CC(C)C)NC9=O)cc7)CC6)cc(C(=O)N6CCN(c7ccc(-c8ccc9cc8CNC(=O)[C@@H]8CCCN8[C@H](C(=O)NC(C)(C)C)[C@H](C)NC(=O)[C@H]([C@@H](C)O)NC(=O)[C@H](CC(=O)O)NC(=O)[C@H](CC(C)C)NC9=O)cc7)CC6)c5)CC4)cc3)c(c2)CNC(=O)[C@@H]2CCCN2[C@H](C(=O)NC(C)(C)C)[C@H](C)NC(=O)[C@H]([C@@H](C)O)NC(=O)[C@H](CC(=O)O)NC1=O [Compound 520] | 6.3 | 1.2 |  |
| CC(C)C[C@@H]1NC(=O)C[C@H](CCCCN)N(C)C(=O)[C@H](CCCCNC(=O)CCCCCCCCC(=O)NCCCC[C@@H]2NC(=O)[C@@H]3CCCN3[C@H](C(=O)NC(C)(C)C)[C@H](C)NC(=O)[C@H]([C@@H](C)O)NC(=O)[C@H](CC(=O)O)NC(=O)[C@H](CC(C)C)NC(=O)C[C@H](CCCCN)N(C)C2=O)NC(=O)[C@@H]2CCCN2[C@H](C(=O)NC(C)(C)C)[C@H](C)NC(=O)[C@H]([C@@H](C)O)NC(=O)[C@H](CC(=O)O)NC1=O [Compound 530] | 5.3 | 5.1 | 1.0 |
| CC(C)C[C@@H]1NC(=O)C[C@H](CCCCN)N(C)C(=O)[C@H](CCCCNC(=O)CCCCCC(=O)NCCCC[C@@H]2NC(=O)[C@@H]3CCCN3[C@H](C(=O)NC(C)(C)C)[C@H](C)NC(=O)[C@H]([C@@H](C)O)NC(=O)[C@H](CC(=O)O)NC(=O)[C@H](CC(C)C)NC(=O)C[C@H](CCCCN)N(C)C2=O)NC(=O)[C@@H]2CCCN2[C@H](C(=O)NC(C)(C)C)[C@H](C)NC(=O)[C@H]([C@@H](C)O)NC(=O)[C@H](CC(=O)O)NC1=O [Compound 532] | 6.1 | 6.9 |  |
| CC(C)C[C@@H]1NC(=O)C[C@H](CCCCN)N(C)C(=O)[C@H](CCCCNC(=O)CCCCCCCC(=O)NCCCC[C@@H]2NC(=O)[C@@H]3CCCN3[C@H](C(=O)NC(C)(C)C)[C@H](C)NC(=O)[C@H]([C@@H](C)O)NC(=O)[C@H](CC(=O)O)NC(=O)[C@H](CC(C)C)NC(=O)C[C@H](CCCCN)N(C)C2=O)NC(=O)[C@@H]2CCCN2[C@H](C(=O)NC(C)(C)C)[C@H](C)NC(=O)[C@H]([C@@H](C)O)NC(=O)[C@H](CC(=O)O)NC1=O [Compound 533] | 5 | 6.2 | 1.2 |
| CC(C)C[C@@H]1NC(=O)C[C@H](CCCCN)N(C)C(=O)[C@H](CCCCNC(=O)c2ccccc2-c2ccccc2C(=O)NCCCC[C@@H]2NC(=O)[C@@H]3CCCN3[C@H](C(=O)NC(C)(C)C)[C@H](C)NC(=O)[C@H]([C@@H](C)O)NC(=O)[C@H](CC(=O)O)NC(=O)[C@H](CC(C)C)NC(=O)C[C@H](CCCCN)N(C)C2=O)NC(=O)[C@@H]2CCCN2[C@H](C(=O)NC(C)(C)C)[C@H](C)NC(=O)[C@H]([C@@H](C)O)NC(=O)[C@H](CC(=O)O)NC1=O [Compound 535] | 8.6 | 9.7 | 0.9 |
